Assays:
[1] = system: OGD/R-induced H9c2 cells; test: Protective effect on OGD/R-induced H9c2 cells (CCK-8 cell viability); type: cell-based, rat; conditions: for H9c2 cell survival after OGD/R (in words): 1, 10, 25, 50 and 100 μM prior to OGD/R, vs model group; for EC50: protective effect against OGD/R injury, H9c2 cell viability
Protocol: (§1) Rat myocardial H9c2 cells (purchased from China Infrastructure of Cell Line Resources, Institute of Basic Medical Sciences, Chinese Academy of Medical Sciences) were cultured in DMEM supplemented with 10% fetal bovine serum (FBS), Penicillin (100 U/mL), and Streptomycin (100 μg/mL) at 37 °C under a humidified atmosphere of 5% CO2 and 95% air. For OGD/R treatment, H9c2 cells were cultured in glucose-free DMEM under hypoxic conditions (95%N2 + 5%CO2) for 4 h at 37 °C followed by complete medium under normal conditions with air (95%) and CO2 (5%) for 2 h. A control group was maintained under normal culture conditions (with glucose-containing DMEM and 5% CO2) without undergoing OGD/R treatment. CCK8 was used to assess cell viability. After treatment, H9c2 cells were seeded in 96-well plates, with each well supplemented with 10 μL of CCK-8 solution and then incubated for 1 h. Finally, the absorbance at 450 nm was detected by a microplate reader (Model […] 200 PRO, TECAN, Grodig, Austria).
(§2) When evaluating the cytotoxicities of the absorbed compounds, the H9c2 cells were seeded in 96-well plates at a density of 1 × 10^4 cells/well; when cells reached 80% confluence, they were treated with 25 and 50 μM of the 24 analytes to screen the non-toxic concentration ranges. Afterward, the protective effects were verified by assessing the cell viability when treating with different concentrations (1, 10, 25, 50, and 100 μM) of the analytes prior to OGD/R treatment.

[2] = Pharmacokinetic study in rats after oral administration of QSG; conditions: for Oral relative bioavailability: exposure level (AUC0→∞) compared with the dosage of each compound in QSG; for AUC(0-inf): AUC0→∞
Protocol: Ion source parameters were set as follows: temperatures of drying gas and sheath gas were 300 °C and 300 °C, flow rates of drying gas and sheath gas were 7 L/min and 11 L/min, the nebulizer was set at 35 psig, capillary voltage was 3500 V (−), and nozzle voltage was 2000 V (−). […] Chromatographic separations were conducted on a ZORBAX Eclipse Plus C18 column (3.0 × 50 mm, 1.8 μm, Agilent Technologies, California, USA). The mobile phase was composed of 0.1% aqueous FA (A, (v/v)) and 0.1% formic acid methanol (B), the flow rate was set at 0.5 mL/min, and the column oven was maintained at 40 °C.
Protein precipitation was carried out for each time point for plasma samples, calibration samples, or QC samples by introducing four volumes of acetonitrile containing 400 ng/mL of icariin. Then, 10 μL 10% aqueous ascorbic acid (v/v) was spiked into each sample to prevent the oxidation of phenolic compounds. […] An aliquot (450 μL) of the supernatant was transferred and dried under nitrogen vacuum.
The pharmacokinetic parameters were calculated by DAS software (version 2.0) for a non-compartmental analysis.

[3] = system: H9c2 cells; test: Cytotoxicity on H9c2 cells (CCK-8); type: cell-based, rat; conditions: for Inhibition rate / inhibition at 25 µM / inhibition at 50 µM / inhibition at 100 µM: H9c2 cells, n=3; for inhibition at 25 µM / inhibition at 50 µM / inhibition at 100 µM: Rattus norvegicus, read-out: Inhibition rate
Protocol: as §1
as §2, with “they were treated with 25 and 50 μM of the 24 analytes to screen the non-toxic concentration ranges.” left out

[4] = Concentrations of 24 analytes in QSG treated plasma (Table S5); conditions: for Concentration: QSG treated plasma, n = 5; for concentration at 0.08 h / concentration at 0.17 h / concentration at 0.5 h / concentration at 1 h / concentration at 2 h / concentration at 4 h / concentration at 8 h / concentration at 12 h: Sprague Dawley, rat, plasma, oral, 7 g/kg
[5] = rat plasma, single oral 7 g/kg QSG, n = 6
[6] = Sprague Dawley, rat, plasma, po, 7 g/kg
[7] = Sprague Dawley, rat, plasma, po, 7 g/kg, rat plasma, single oral 7 g/kg QSG, n = 6

Structure (SMILES): O=C(/C=C/c1ccc(O)c(O)c1)O[C@H]1[C@H](O)C[C@](O)(C(=O)O)C[C@H]1O [Cryptochlorogenic acid]
- H9c2 cell survival after OGD/R (in words) [1]: significantly improve H9c2 cell survival rates
- EC50 [1]: 1.13 µM
- AUC0→∞ ([2]; Table S12, rats, oral QSG): 576.2 ng·h/mL
- AUCi ([2]; exposure (AUC0→∞) of the component in rats after oral QSG, as used for ECI): 576.2
- Oral relative bioavailability [2]: 0.026%
- Absorption efficiency / bioavailability (in words) ([2]; from Table S12, rats, oral QSG): relatively higher absorption rates
- AUC0→t [2, 5]: 532.2 ± 41.45 ng·h/mL
- AUC0→∞ [2, 5]: 576.2 ± 58.15 ng·h/mL
- Cmax [2, 5]: 184.1 ± 57.43 ng/mL
- MRT [2, 5]: 8.933 ± 0.5290 h
- T1/2 [2, 5]: 10.84 ± 2.625 h
- Tmax [2, 5]: 0.364 ± 0.076 h
- Inhibition rate ([3]; 25 μM): -16.2 ± 4.2%
- Inhibition rate ([3]; 50 μM): -3.4 ± 0.2%
- Inhibition rate ([3]; 100 μM): 5.2 ± 0.4%
- Effect on H9c2 cell viability / cytotoxicity (in words) ([3]; CCK-8, compared to the control group): significantly enhanced cell viabilities
- Concentration ([4]; 0.08 h): 17.855 ± 11.504 ng/mL
- Concentration ([4]; 0.17 h): 95.627 ± 23.461 ng/mL
- Concentration ([4]; 0.5 h): 135.955 ± 20.918 ng/mL
- Concentration ([4]; 1 h): 54.572 ± 22.599 ng/mL
- Concentration ([4]; 2 h): 29.505 ± 18.460 ng/mL
- Concentration ([4]; 4 h): 18.424 ± 6.281 ng/mL
- Concentration ([4]; 8 h): 21.857 ± 6.099 ng/mL
- Concentration ([4]; 12 h): 12.189 ± 3.932 ng/mL

Structure (SMILES): O=c1cc(-c2ccc(O)c(O)c2)oc2cc(O)cc(O)c12 [Luteolin]
- H9c2 cell survival after OGD/R (in words) [1]: significantly improve H9c2 cell survival rates
- EC50 ([1]; Rattus norvegicus): 11.3 µM
- AUC [2, 6]: 10.9 ng·h/mL
- AUC(0-t) [2, 6]: 10.3 ± 0.93 ng·h/mL
- Cmax [2, 6]: 12.8 ± 4.12 ng/mL
- MRT [2, 6]: 1.84 ± 0.448 h
- Tmax [2, 6]: 0.17 h
- half-life [2, 6]: 2.6 ± 1.22 h
- AUC(0-inf) [2, 7]: 10.9 ± 0.867 ng·h/mL
- inhibition at 25 µM ([3]; 25 μM): 12.2 ± 4%
- inhibition at 50 µM ([3]; 50 μM): 13.1 ± 7.2%
- inhibition at 100 µM ([3]; 100 μM): 18.1 ± 4.2%
- concentration at 0.08 h [4]: 5.84 ± 1.29 ng/mL
- concentration at 0.17 h [4]: 13.6 ± 4.12 ng/mL
- concentration at 0.5 h [4]: 4.37 ± 1.59 ng/mL
- concentration at 1 h [4]: 2.41 ± 0.697 ng/mL
- concentration at 2 h [4]: 0.911 ± 0.249 ng/mL
- concentration at 4 h [4]: 0.251 ± 0.183 ng/mL
- concentration at 8 h [4]: 0.188 ± 0.101 ng/mL
- concentration at 12 h [4]: 0.042 ± 0.044 ng/mL

Structure (SMILES): COc1ccc(-c2coc3cc(O)ccc3c2=O)cc1 [Formononetin]
- H9c2 cell survival after OGD/R (in words) [1]: significantly improve H9c2 cell survival rates
- EC50 ([1]; Rattus norvegicus): 65 µM
- Protective effects on OGD/R-induced H9c2 cells (in words) ([1]; at 50 and 100 μM): significant protective effects
- AUC [2, 6]: 27.7 ng·h/mL
- AUC(0-t) [2, 6]: 18.5 ± 5.01 ng·h/mL
- Cmax [2, 6]: 4.31 ± 0.952 ng/mL
- MRT [2, 6]: 6.79 ± 4.77 h
- Tmax [2, 6]: 0.516 ± 0.15 h
- half-life [2, 6]: 10.9 ± 9.19 h
- AUC(0-inf) ([2]; Sprague Dawley, rat, plasma, po, 7 g/kg, Table S12, rats, oral QSG): 27.7 ng·h/mL
- AUC(0-inf) [2, 7]: 27.7 ± 12.2 ng·h/mL
- Oral relative bioavailability [2]: 0.033%
- inhibition at 25 µM ([3]; 25 μM): 10.7 ± 4.5%
- inhibition at 50 µM ([3]; 50 μM): 10.8 ± 5.2%
- inhibition at 100 µM ([3]; 100 μM): 13.5 ± 2.2%
- concentration at 0.08 h [4]: 0.74 ± 0.932 ng/mL
- concentration at 0.17 h [4]: 2.81 ± 1.24 ng/mL
- concentration at 0.5 h [4]: 4.23 ± 0.976 ng/mL
- concentration at 1 h [4]: 2.77 ± 1.06 ng/mL
- concentration at 2 h [4]: 1.45 ± 0.436 ng/mL
- concentration at 4 h [4]: 1.03 ± 0.395 ng/mL
- concentration at 8 h [4]: 0.656 ± 0.349 ng/mL
- concentration at 12 h [4]: 0.289 ± 0.213 ng/mL
